Legend:
Format in all cases: cell-based
HIV-1MDR/C = experiment: p24 production inhibition in PHA-PBMC
Method in brief: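 PBMC: PHA-stimulated, 10^6/ml, one donor/experiment, 50 TCID50 isolate, 10-fold drug series, p24 day 7. MT-4: 10^5/ml, 100 TCID50, 37 °C, p24 day 7. MT-2: 10^4/ml, 100 TCID50, 7 d, MTT 2 h.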

[1] = test system: HIV-1ME46 (subtype B, X4/R5); experiment: p24 production inhibition in PHA-PBMC; details: Human immunodeficiency virus 1, PHA-PBMC, p24 Gag production
Method in brief: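 MTT read-out after 7 d at 37 °C for MT-2 (10^4/ml) challenged with 100 TCID50 virus ± compound. p24 by chemiluminescent EIA on day 7 for PHA-PBMC (10^6/ml, 50 TCID50) and MT-4 (10^5/ml, 100 TCID50).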

HIV-1I47V = experiment: p24 assay in MT-4 cells, recombinant clone; details: Human immunodeficiency virus 1, MT4
Experimental: (§1) The susceptibility of HIV-1LAI or HIV-2ROD to various compounds was determined as previously described[20]–[22]. Briefly, MT-2 cells (10^4/ml) were exposed to 100 TCID50 of HIV-1LAI or HIV-2ROD in the presence or absence of various concentrations of compounds in 96-well plates and were incubated at 37 °C for 7 days. After incubation, 100 μl of the medium was removed from each well, 3-(4,5-dimetylthiazol-2-yl)-2,5-diphenyltetrazolium bromide (MTT) solution (10 μl, 7.5 mg/ml in PBS) was added to each well, followed by incubation at 37 °C for 2 h. […] To determine the sensitivity of clinically isolated HIV-1s to compounds, PHA-PBMC (10^6/ml) were exposed to 50 TCID50 of each HIV-1 and cultured in the presence or absence of various concentrations of compounds in 10-fold serial dilutions in 96-well plates. In determining the drug-susceptibility of certain laboratory HIV-1 strains, MT-4 cells were employed as target cells as previously described[23],[24]. MT-4 cells (10^5/ml) were exposed to 100 TCID50 of drug-resistant HIV-1s in the presence or absence of various concentrations of compounds and were incubated at 37 °C. On day 7, the supernatants were harvested and the amounts of p24 were determined by using a fully-automated chemiluminescent enzyme immunoassay system (Lumipulse f: Fujirebio, Tokyo)[35]–[37]. […] All assays were performed in duplicate, and EC50 shown in this report represent average values of two to four independent experiments. PHA-PBMCs were derived from a single donor in each independent experiment. The research protocols described in the present study were carried out in accordance with relevant guidelines and regulations, and were approved in Ethics Committee for Epidemiological and General Research at the Faculty of Life Sciences, Kumamoto University.
(§2) To generate HIV-1 clones carrying the desired AA substitutions, site-directed mutagenesis was performed with a QuikChange site-directed mutagenesis kit (Stratagene, La Jolla, CA), and the AA substitution-containing genomic fragments were introduced into pHIV-1NL4-3Sma, which had been created to have a SmaI site by changing two nucleotides (2590 and 2593) of pHIV-1NL4-3.

HIV-1I84V = experiment: p24 assay in MT-4 cells, recombinant clone; details: Human immunodeficiency virus 1, MT4
Experimental: as §1, §2

HIV-1L10F = experiment: p24 assay in MT-4 cells, recombinant clone; details: Human immunodeficiency virus 1, MT4
Experimental: as §1, §2

HIV-1T91A = experiment: p24 assay in MT-4 cells, recombinant clone; details: Human immunodeficiency virus 1, MT4
Experimental: as §1, §2

HIV-1NL4-3 = experiment: In vitro selection of resistant HIV-1 variants in MT-4 cells
Description: MT-4 cells (10^5/ml) were exposed to HIV-1NL4-3 (500 TCID50) and cultured in the presence of compounds at an initial concentration of its EC50 value. Viral replication was monitored by the determination of the amount of p24 produced by MT-4 cells. The supernatants were harvested on day 7 and were used to infect fresh MT-4 cells for the next round of culture in the presence of increasing concentrations of each compound. Proviral DNAs obtained from the lysates of infected cells were subjected to sequencing. This selection procedure was carried out until the drug concentration reached 5 μM as previously described[20]–[22]).

## COc1ccc(S(=O)(=O)N(CC(C)C)CC(O)C(Cc2ccccc2)NC(=O)OC2C3COC4OCC2C4C3)cc1 (stereo not shown) [GRL-09510]
HIV-1MDR/C; Human immunodeficiency virus 1, PHA-PBMC, p24 Gag production
  EC50: 3.2 ± 0.6 nM
HIV-1MDR/C; compared to EC50 for HIV-1ERS104pre
  fold change of EC50 HIV-1MDR/C: 1
[1]
  EC50: 1.2 ± 0.2 nM
HIV-1I47V
  EC50: 3.6 ± 0.5 nM
HIV-1I84V
  EC50: 3.3 ± 0.3 nM
HIV-1L10F
  EC50: 4.4 ± 0.2 nM
HIV-1T91A
  EC50: 3.3 ± 0.4 nM
HIV-1NL4-3; HIV-1NL4-3 first exposed to 0.003 µM
  selection concentration reached after 24 passages: 0.105 µM
HIV-1NL4-3; at around passage 30, selection discontinued at passage 37
  concentrations in which the virus began continuously failing to propagate: > 0.27 µM
HIV-1NL4-3; initial 0.003 µM
  fold greater selection concentration than the initial concentration after 24 passages: 35 fold
